In assay [1] the test system is Subjects. Description: ESA panel evaluation of compressed mints (cooling strength, flavor strength, bitterness/off-taste). It counts as in vivo, human. As to conditions: for upfront cooling intensity: first 3 minutes, 9-point scale, WS-5 500 ppm. On the procedure:
All samples were prepared in a pilot plant under good manufacture practice conditions. Samples made for consumer descriptive analysis passed a metal detector test. One sample of each mint formulation was further evaluated in both Expert Sensory Analysis (ESA) and Descriptive Analysis tests.
Compressed mint samples were evaluated for cooling strength, flavor strength and bitterness, or off-taste in a randomized sampling order by a 9-point scale: 0 being the lowest and 9 being the highest. Subjects were allowed to suck the compressed mint (without biting or chewing) until completely dissolved. The coolant attributes were measured at different time points up to 15 minutes.
The level of WS-12 was increased to levels from 250 to 1000 ppm (0.025%-0.1% w/w) and additional ESA evaluations were conducted.

Assay [2] relates to descriptive panel (N=8). Description: Consumer-Descriptive Analysis panel study of compressed mints. Type of assay: in vivo, human. As for the experimental part: All samples were prepared in a pilot plant under good manufacture practice conditions. Samples made for consumer descriptive analysis passed a metal detector test. One sample of each mint formulation was further evaluated in both Expert Sensory Analysis (ESA) and Descriptive Analysis tests. A Consumer-Descriptive Analysis panel study was conducted. Four mints containing various level of cooling blend were formulated at a pilot plant. During the test, each member of the descriptive panel (N=8) sucked one piece of mint until it completely dissolved. During the mint consumption, panelists evaluated various cooling attributes including oral cool and nasal cool at several specified time points. Flavor and sweetener intensity, bitterness, and off-taste were also evaluated. Panelists continued the evaluation even after mint consumption was complete, for a total of 20 minutes from the beginning of the test.

[3] abbreviates: compressed mint, WS-12 1000 ppm, WS-5 and WS-12 250 ppm of each.

On to `COc1ccc(NC(=O)[C@@H]2C[C@H](C)CC[C@H]2C(C)C)cc1` [WS-12, (1R,2S,5R)-N-(4-Methoxyphenyl)-5-methyl-2-(1-methylethyl)cyclohexanecarboxamide], for which the cooling duration in assay [1] (compressed mint, WS-12 1000 ppm, measured up to 15 minutes) is listed as > 15 min. Also, the upfront cooling intensity entry in assay [1] (setting [3]) was “very low upfront cooling”. Besides, the “cooling after 6 min” value in assay [1] (compressed mint, compared to mint comprising WS-23 (1000 ppm), WS-12 1000 ppm, WS-5 and WS-12 250 ppm of each) is on record as “significant more cooling”. Further, the “cooling intensity, flavor intensity or duration of cooling versus the control mints” value in assay [1] (compressed mints, low level of WS-12 (25-100 ppm)) is “No significant difference”.
Regarding `CCOC(=O)CNC(=O)C1CC(C)CCC1C(C)C` (stereo not drawn) [WS-5, N-(Ethoxycarbonylmethyl)-3-p-menthanecarboxamide], the “oral cooling sustained after consumption” value in assay [2] (compressed mint, WS-5) is “up to 10 minutes”. Besides, the oral cooling entry in assay [2] (during the 15 minutes, vs control, WS-5 500 ppm, WS-5/WS-12 250/250 ppm) is “higher oral cooling”. The upfront cooling intensity entry in assay [1] (setting [3]) is “strong cooling intensity upfront”.
As for `CNC(=O)C(C)(C(C)C)C(C)C` [WS-23, N,2,3-Trimethyl-2-isopropylbutamide, reference compound], the oral cooling result was “lost cooling strength and became similar to the control” in assay [2] (after the first 4 minutes, WS-23 0.1%); “superior oral cooling” in assay [2] (first 4 minutes, WS-23 0.1%).

The values are drawn from US20180184680A1, “LONG-LASTING COOLING FORMULATIONS” (WM. WRIGLEY JR. COMPANY, priority 2015, published 2018).
